# Reference: patent publication US20110301104A1, “Transition state structure of orotate phosphoribosyl transferases and uses thereof” (priority 2008, published 2011)
# Where two headings read alike, the source gives them in different places.
# Tests used:
# Format in all cases: biochemical
# HsOPRT [1] = target: T1, HsOPRT (Homo sapiens, UniProt P11172); test: HsOPRT kinetic and inhibition assay (OMP with PA or PPi)
# T1 construct: This HsUMPase truncation construct only expresses its HsOPRT domain; His6 (thrombin-cleavable) (N, cleaved yes); made in house; host or cells: E. coli BL21-AI
# T1 sequence (P11172 1-245): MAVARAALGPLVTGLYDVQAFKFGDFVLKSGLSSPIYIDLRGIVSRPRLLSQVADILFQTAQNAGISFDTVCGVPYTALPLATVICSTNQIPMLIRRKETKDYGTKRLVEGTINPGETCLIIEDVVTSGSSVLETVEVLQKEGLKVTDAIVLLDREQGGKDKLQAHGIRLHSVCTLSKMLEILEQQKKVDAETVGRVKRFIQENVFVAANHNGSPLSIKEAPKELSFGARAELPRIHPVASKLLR
# Experimental: (§1) Expression and Purification of PfOPRT and HsOPRT. The pDEST14 vectors encoding the two OPRT genes were transformed into BL21-AI E. coli competent cells and grown in LB+Amp (100 μg mL^−1) at 37° C. to an OD600 of 0.6. Protein expression was induced by adding 0.02% L-arabinose with overnight growth at 37° C. Cells were harvested by centrifugation at 4° C., weighted and resuspended in lysis buffer (20 mM Tris-HCl, 500 mM NaCl and 5 mM Imidazole, pH=7.9, 3 mL/gram cell pellet). Lysozyme (100 μg mL^−1), DNase I (10 μg mL^−1) and protease inhibitor (1 tablet/8 grams of cells) (Roche Applied Science, Indianapolis, Ind.) were added to the solution. Following disruption in a French Press, cell lysate was centrifuged at 30,000 g for […] at 4° C. […] The 6×His-OPRTs were eluted with a gradient of imidazole (20 mM ˜500 mM). The OPRT bands were visualized on SDS-PAGE gels and fractions with high purity were pooled, made to 10% glycerol and 10 mM β-ME (final concentration), concentrated and dialyzed overnight at 4° C. to remove imidazole. His-tags were removed during dialysis by the presence of thrombin (1 unit/0.1 mg). His-tag free OPRTs were purified by Superdex 200 26/60 Gel filtration column, concentrated and stored at −80° C. […] Reactions were monitored by the absorbance increase at 295 nm to give an extinction coefficient of 3.67 mM^−1 cm^−1.
# PfOPRT [2] = target: T2, PfOPRT (Plasmodium falciparum, UniProt Q8I3Y0); test: PfOPRT kinetic and inhibition assay (OMP with PA or PPi)
# T2 construct: His6 (thrombin-cleavable) (N, cleaved yes); made in house; host or cells: E. coli BL21-AI
# T2 sequence (Q8I3Y0 1-281): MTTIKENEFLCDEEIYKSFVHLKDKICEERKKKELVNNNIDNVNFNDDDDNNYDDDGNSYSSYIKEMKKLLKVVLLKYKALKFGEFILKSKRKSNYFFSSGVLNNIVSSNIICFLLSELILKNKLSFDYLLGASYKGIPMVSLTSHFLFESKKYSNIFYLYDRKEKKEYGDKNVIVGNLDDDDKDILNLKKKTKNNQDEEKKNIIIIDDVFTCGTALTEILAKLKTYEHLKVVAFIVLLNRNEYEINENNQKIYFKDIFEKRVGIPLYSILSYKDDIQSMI
# Experimental: as §1
# PfOPRT [3] = target: T2, PfOPRT; test: PfOPRT catalytic activity with p-nitrophenyl β-D-ribose 5′-phosphate as substrate; conditions: with PA or pyrophosphate; absorbance at 400 nm; conditions could detect 10^−6 of normal activity
# Experimental: (§2) The PfOPRT and HsOPRT catalytic activities with p-nitrophenyl β-D-ribose 5′-phosphate were measured at 25° C. in solutions containing 50 mM Tris-HCl (pH=8.0), 5 mM MgCl2 and varied concentrations of p-nitrophenyl β-D-ribose 5′-phosphate and PA or pyrophosphate. Reaction rates were monitored through the absorbance increase at 400 nm.
# HsOPRT [4] = target: T1, HsOPRT; test: HsOPRT catalytic activity with p-nitrophenyl β-D-ribose 5′-phosphate as substrate; conditions: with PA or pyrophosphate; absorbance at 400 nm
# Experimental: as §2
# [5] = competitive inhibition with respect to OMP, PPi as substrate, 25° C., pH 8.0
structure (smiles),measurement,setting,value
"O=C(O)c1cc(=O)[nH]c(=O)n1[C@@H]1O[C@H](COP(=O)(O)O)[C@@H](O)[C@H]1O [OMP, orotidine 5′-monophosphate, reference compound]",reduction of kcat/Km with PA relative to PPi as the nucleophile,"HsOPRT [1]; OMP, PA versus PPi",8.3 fold
same,reduction of kcat/Km with PA relative to PPi as the nucleophile,"PfOPRT [2]; OMP, PA versus PPi",110 fold
O=[N+]([O-])c1ccc(O[C@@H]2O[C@H](COP(=O)(O)O)[C@@H](O)[C@H]2O)cc1 [p-nitrophenyl β-D-ribose 5′-phosphate],catalytic activity as substrate (O-glycosidic bond cleavage),PfOPRT [3],did not catalyze the O-glycosidic bond cleavage
same,catalytic activity as substrate (O-glycosidic bond cleavage),HsOPRT [4],Poor catalytic activity
same,Ki,HsOPRT [1],41 nM
same,Km/Ki,HsOPRT [1]; Km of OMP over Ki of inhibitor,38
same,Ki,PfOPRT [2],40 nM
same,Km/Ki,PfOPRT [2]; Km of OMP over Ki of inhibitor,93
"O=[N+]([O-])c1ccc(O[C@@H]2O[C@H](CO)[C@@H](O)[C@H]2O)cc1 [p-nitrophenyl β-D-ribose, reference compound]",Ki,HsOPRT [1]; [5],121 nM
same,Ki,PfOPRT [2]; [5],188 nM
